Results taken from patent publication US12508323B2, “Method of treatment of colorectal, breast and lung cancer with metal containing immune agonist complexes” (HANGZHOU XINGAO BIOTECHNOLOGY CO., LTD., priority 2020, dated 2025).

How the values were obtained:
[1] = tested on: mice with localized cerebral ischemia; assay: Local cerebral ischemia model (wire bolus method), Zea Longa 5-point behavioral score; type: in vivo; conditions: ICR mice, 10 mg/kg i.p., Zea Longa 5-point scale (0 normal to 4)
Excerpt: Healthy male ICR mice, weighing 18-20 g, were purchased from Shanghai Slaughter Laboratory Animal Co (quality certificate number (SCXK(SH) 2007-0005)) and raised in a cleaning experimental animal room.
Local cerebral ischemia model was made by wire bolus method to verify the therapeutic effects of immune agonist complexes on cerebral ischemic brain diseases in experimental animals.
Experimental mice were anesthetized with 10% chloral hydrate intraperitoneally, and a median cervical incision was made to separate and ligate the proximal segment of the right common carotid artery, the carotid artery and branch vessels thereof. The right internal carotid artery was isolated, the pterygopalatine artery was isolated downward along the internal carotid artery, and the root was ligated for this branch. The proximal end of the internal carotid was provided with a prepared wire, and the distal end of the internal carotid was provided with an artery clip. […] Behavioral scoring was performed after surgery, and the scoring was single-blinded with reference to the Zea Longa 5-point scale, which was scored as follows: 0, normal mice with no signs of neurological injury; 1, unable to fully extend the contralateral front paw; 2, turning in a circle to the outside; 3, relatively measured tipping; and 4, unable to walk spontaneously, and loss of consciousness injury. […]

[2] = tested on: APP/PS1 transgenic AD model mice; assay: Morris water maze test in AD mice; type: in vivo; conditions: 10 mg/kg i.p. once a day for 60 days, space exploration test
Experimental: APP/PS1 transgenic AD model mice were purchased from Southern Model Biotechnology Co., Ltd., which were 4 months in age, and 24-26 g in weight. […]
A circular pool was designed, which was 1 m in diameter, 50 cm in height, 30 cm deep, and white bottom. […] After the mice found the platform or could not find the platform within 90 seconds (the latency period was recorded as 90 seconds), they were guided to the platform by the experimenter and rested on the platform for 10 seconds before the next trial.
24 h after the end of the positioning navigation test, the platform was removed. Then the mice were put into the water from the third quadrant, and the swimming paths of the mice were recorded within 180 s. The residence time of the mice in the target quadrant (third quadrant) and the number of times they crossed the location of the original platform were recorded to observe the spatial orientation ability of the mice. […]

[3] = tested on: dendritic cell DCs and T cells; assay: Activation of immune cells (flow cytometry of spleen and lung cells); type: in vivo, mice; conditions: 14 days after immunization, mouse spleen and lung tissues
Experimental: Mice were raised, immunized with virus infection, and subjected to blood collection, as the same as Example 3. Isotype control nanobody was purchased from eBiosciences; antibody magnetic beads were purchased from Militeny Biotech; and flow cytometer was purchased from BD company. 14 days after immunization, mouse spleen and lung tissues were taken, ground and pounded separately, filtered with a 40-μm filter, and centrifuged at 1000 rpm for 10 min to separate unlysed immune cells. The DC cells (CD40\CD80\CD86\MHCII), T cells and (CD8+) cells were separated by the antibody magnetic beads, and added with the corresponding FAC nanobody (diluted with FACS buffer). As a negative control, the isotype control nanobody was added into the DC cells followed by incubation for 1 h, centrifugation, and rinsing with PBS. After that, the samples were analyzed by the flow cytometry to select the appropriate cells for determination of fluorescence intensity (MFI), and the results were shown in Table 8.

Compound: Nc1nc(=O)c2ncn(C3OC4COP(=O)(O)OC5C(COP(=O)(O)OC3C4O)OC(n3cnc4c(N)ncnc43)C5O)c2[nH]1 (stereo not drawn) [cGAMP, 2′3′-cGAMP]
- Behavioral scores (24 hours after surgery) [1]: 2.26 ± 0.40
- Behavioral scores (7 days after surgery) [1]: 1.65 ± 0.34
- Percentage of time to cross the third quadrant platform in AD mice (%) [2]: 0.55 ± 0.10%
- CD8 cells (%) [3]: 2.3 ± 0.2%
- CD40 cells (%) [3]: 122.6%
- CD80 cells (%) [3]: 115.5%
- CD86 cells (%) [3]: 18.3%
- MHCII cells (%) [3]: 218.4%
- T cells (%) [3]: 0.3 ± 0.2%
